The text below walks through data of article PMC12829161 (BMC Microbiology, 2025).

Structures can show the parent of a compound that is named as a salt. Bridge positions count the residues as written; N and C are the ends. Square brackets hold non-standard residues; d marks the D form. Peptide text beside a SMILES is read from it. * marks the point of attachment. X1 = CC[C@H](C)CCCCC(=O)*; Dab = NCC[C@H](N)C(=O)O

Holding throughout (type): cell-based, Pseudomonas aeruginosa
In experiment [1] the test system is PAO1 biofilm.
Experiment [2] deals with PA14 biofilm.
The test system of experiment [3] is PAO1 biofilm. The source holds these as a separate data set.
For experiment [4], the system named is PA14 biofilm. The source holds these as a separate data set.

Consider `CC[C@H](C)CCCCC(=O)N[C@@H](CCN)C(=O)N[C@H](C(=O)N[C@@H](CCN)C(=O)N[C@H]1CCNC(=O)[C@H]([C@@H](C)O)NC(=O)[C@H](CCN)NC(=O)[C@H](CCN)NC(=O)[C@H](CC(C)C)NC(=O)[C@@H](Cc2ccccc2)NC(=O)[C@H](CCN)NC1=O)[C@@H](C)O` [Polymyxin B, Polymyxin B sulfate] (X1-[Dab]T[Dab][Dab][Dab][dF]L[Dab][Dab]T; lactam 4-C (inferred); N-terminus assumed), for which, in the experiment with PAO1 biofilm [1], the “Biofilm viability (TTC), % of untreated control” value is reported as 65 (± 20) %; the “Concentration at which total bacterial growth (OD600) is significantly inhibited” value is recorded as 4 µg/mL; the “Increase in biofilm mass (CV) vs untreated control” value is “over 200%”; the “Total bacterial growth (OD600), % of untreated control” value was “approximately 170 (± 48) %”. Moreover, in the experiment with PA14 biofilm [2], the “Biofilm inhibition (CV) at sub-MICs and MICs vs untreated control” value is “no significant biofilm inhibition”; the “Biofilm viability (TTC), % of untreated control” value is listed as “approximately 6 (±6) %”; the “Concentration at which total bacterial growth (OD600) is significantly inhibited” value came out at 2 µg/mL; the “Increase in bacterial cells (total growth, OD600)” value is “No statistically significant increase”. Besides, in the experiment with PAO1 biofilm [3], the “Reduction of total growth (OD600) vs untreated control” value is reported as “at least 70%”. Besides, in the experiment with PA14 biofilm [4], the “Reduction of total growth (OD600) vs untreated control” value is recorded as “at least 70%”.
